Results as given in ChEMBL document CHEMBL1201862, “PubChem BioAssay data set” (2004).
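Results reflect a 48-hour exposure of cells in 96-well plates to compound at five concentrations. Here, GI50 denotes the concentration required for 50% inhibition of growth.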 Active and inactive are the calls of the source. Rule as the data show it: active = GI50 up to about 1.1 µM and inactive = higher.

Tests used:
Assay in all cases: NCI-60 cell line screen, 48 h
786-0 = test system: 786-0
A498 = test system: A498
A549 = test system: A549
ACHN = test system: ACHN
CAKI-1 = test system: CAKI-1
CCRF-CEM = test system: CCRF-CEM
COLO 205 = test system: COLO 205
DLD-1 = test system: DLD-1
DMS-273 = test system: DMS-273
EKVX = test system: EKVX
HCC 2998 = test system: HCC 2998
HCT-116 = test system: HCT-116
HCT-15 = test system: HCT-15
HL-60 = test system: HL-60
HOP-18 = test system: HOP-18
HOP-62 = test system: HOP-62
HOP-92 = test system: HOP-92
HT-29 = test system: HT-29
IGROV-1 = test system: IGROV-1
K562 = test system: K562
KM-20L2 = test system: KM-20L2
KM12 = test system: KM12
LOX IMVI = test system: LOX IMVI
LXFL 529 = test system: LXFL 529
M14 = test system: M14
M19-MEL = test system: M19-MEL
MOLT-4 = test system: MOLT-4
Malme-3M = test system: Malme-3M
NCI-H226 = test system: NCI-H226
NCI-H23 = test system: NCI-H23
NCI-H460 = test system: NCI-H460
OVCAR-3 = test system: OVCAR-3
OVCAR-4 = test system: OVCAR-4
OVCAR-5 = test system: OVCAR-5
RPMI-8226 = test system: RPMI-8226
RXF 393 = test system: RXF 393
RXF 631 = test system: RXF 631
SF-268 = test system: SF-268
SF-295 = test system: SF-295
SF-539 = test system: SF-539
SK-MEL-28 = test system: SK-MEL-28
SK-MEL-2 = test system: SK-MEL-2
SK-MEL-5 = test system: SK-MEL-5
SK-OV-3 = test system: SK-OV-3
SN12C = test system: SN12C
SNB-19 = test system: SNB-19
SNB-75 = test system: SNB-75
SNB-78 = test system: SNB-78
SR = test system: SR
SW-620 = test system: SW-620
TK-10 = test system: TK-10
U-251 = test system: U-251
UACC-257 = test system: UACC-257
UACC-62 = test system: UACC-62
UO-31 = test system: UO-31
DMS-114 = test system: DMS-114
NCI-H522 = test system: NCI-H522
OVCAR-8 = test system: OVCAR-8

In the case of CC(C)=CC(=O)Cc1nc2ccccc2[nH]c1=O, the GI50 (786-0) is reported as 82.4 µM (inactive), the GI50 (A498) is reported as > 100 µM (inactive) and the GI50 (A549) is reported as > 100 µM (inactive). The GI50 (ACHN) was > 100 µM (inactive), the GI50 (CAKI-1) was 76.7 µM (inactive) and the GI50 (CCRF-CEM) was 64.7 µM (inactive). For the same compound, the GI50 (COLO 205) was > 100 µM (inactive), the GI50 (DLD-1) was > 100 µM (inactive) and the GI50 (DMS-273) was > 100 µM (inactive). The GI50 (EKVX) was 47.3 µM (inactive), the GI50 (HCC 2998) was > 100 µM (inactive) and the GI50 (HCT-116) was > 100 µM (inactive). The GI50 (HCT-15) was over 100 µM, the GI50 (HL-60) was 49.5 µM (inactive) and the GI50 (HOP-18) was 37 µM (inactive). The GI50 (HOP-62) was 76 µM (inactive), the GI50 (HOP-92) was 22.4 µM (inactive) and the GI50 (HT-29) was > 100 µM (inactive). For the same compound, the GI50 (IGROV-1) was > 100 µM (inactive), the GI50 (K562) was > 100 µM (inactive) and the GI50 (KM-20L2) was > 100 µM (inactive). The GI50 (KM12) was > 100 µM (inactive), the GI50 (LOX IMVI) was > 100 µM (inactive) and the GI50 (LXFL 529) was > 100 µM (inactive). The GI50 (M14) was > 100 µM (inactive), the GI50 (M19-MEL) was > 100 µM (inactive) and the GI50 (MOLT-4) was > 100 µM (inactive). The GI50 (Malme-3M) was > 100 µM (inactive), the GI50 (NCI-H226) was > 100 µM (inactive) and the GI50 (NCI-H23) was > 100 µM (inactive). The GI50 (NCI-H460) was > 100 µM (inactive), the GI50 (OVCAR-3) was > 100 µM (inactive) and the GI50 (OVCAR-4) was 52.2 µM (inactive). For the same compound, the GI50 (OVCAR-5) was > 100 µM (inactive), the GI50 (RPMI-8226) was > 100 µM (inactive) and the GI50 (RXF 393) was 18.4 µM (inactive). The GI50 (RXF 631) was > 100 µM (inactive), the GI50 (SF-268) was > 100 µM (inactive) and the GI50 (SF-295) was 64 µM (inactive). The GI50 (SF-539) was > 100 µM (inactive), the GI50 (SK-MEL-28) was > 100 µM (inactive) and the GI50 (SK-MEL-2) was > 100 µM (inactive). For the same compound, the GI50 (SK-MEL-5) was > 100 µM (inactive), the GI50 (SK-OV-3) was > 100 µM (inactive) and the GI50 (SN12C) was > 100 µM (inactive). For the same compound, the GI50 (SNB-19) was > 100 µM (inactive), the GI50 (SNB-75) was 40.3 µM (inactive) and the GI50 (SNB-78) was > 100 µM (inactive). For the same compound, the GI50 (SR) was > 100 µM (inactive), the GI50 (SW-620) was > 100 µM (inactive) and the GI50 (TK-10) was > 100 µM (inactive). For the same compound, the GI50 (U-251) was > 100 µM (inactive), the GI50 (UACC-257) was > 100 µM (inactive) and the GI50 (UACC-62) was > 100 µM (inactive). The GI50 (UO-31) was 68.7 µM (inactive).

CN(C)C(=S)/N=c1\ss/c(=N\S(=O)(=O)c2ccccc2)n1N(C)C was tested, and the GI50 (786-0) was 45 µM (inactive), the GI50 (A498) was > 100 µM (inactive) and the GI50 (A549) was > 100 µM (inactive). For the same compound, the GI50 (ACHN) was > 100 µM (inactive), the GI50 (CAKI-1) was > 100 µM (inactive) and the GI50 (CCRF-CEM) was 37.9 µM (inactive). The GI50 (COLO 205) was > 100 µM (inactive), the GI50 (DLD-1) was > 100 µM (inactive) and the GI50 (DMS-114) was 12.9 µM (inactive). The GI50 (DMS-273) was 92 µM (inactive), the GI50 (EKVX) was > 100 µM (inactive) and the GI50 (HCC 2998) was > 100 µM (inactive). For the same compound, the GI50 (HCT-116) was 75 µM (inactive), the GI50 (HCT-15) was over 100 µM and the GI50 (HL-60) was > 100 µM (inactive). For the same compound, the GI50 (HOP-18) was > 100 µM (inactive), the GI50 (HOP-62) was > 100 µM (inactive) and the GI50 (IGROV-1) was > 100 µM (inactive). For the same compound, the GI50 (K562) was 59.8 µM (inactive), the GI50 (KM-20L2) was > 100 µM (inactive) and the GI50 (KM12) was > 100 µM (inactive). The GI50 (LXFL 529) was > 100 µM (inactive), the GI50 (M14) was > 100 µM (inactive) and the GI50 (M19-MEL) was 55.5 µM (inactive). The GI50 (MOLT-4) was > 100 µM (inactive), the GI50 (Malme-3M) was > 100 µM (inactive) and the GI50 (NCI-H226) was > 100 µM (inactive). The GI50 (NCI-H460) was > 100 µM (inactive), the GI50 (NCI-H522) was 4.92 µM (inactive) and the GI50 (OVCAR-3) was > 100 µM (inactive). For the same compound, the GI50 (OVCAR-4) was > 100 µM (inactive), the GI50 (OVCAR-8) was > 100 µM (inactive) and the GI50 (RPMI-8226) was 62.7 µM (inactive). For the same compound, the GI50 (RXF 393) was 9.91 µM (inactive), the GI50 (RXF 631) was > 100 µM (inactive) and the GI50 (SF-268) was 69.8 µM (inactive). The GI50 (SF-539) was > 100 µM (inactive), the GI50 (SK-MEL-28) was > 100 µM (inactive) and the GI50 (SK-MEL-2) was > 100 µM (inactive). The GI50 (SK-MEL-5) was > 100 µM (inactive), the GI50 (SK-OV-3) was > 100 µM (inactive) and the GI50 (SN12C) was > 100 µM (inactive). The GI50 (SNB-19) was > 100 µM (inactive), the GI50 (SNB-75) was > 100 µM (inactive) and the GI50 (SNB-78) was > 100 µM (inactive). The GI50 (SR) was 41.2 µM (inactive), the GI50 (SW-620) was > 100 µM (inactive) and the GI50 (TK-10) was > 100 µM (inactive). For the same compound, the GI50 (U-251) was > 100 µM (inactive), the GI50 (UACC-257) was > 100 µM (inactive) and the GI50 (UACC-62) was > 100 µM (inactive). For the same compound, the GI50 (UO-31) was > 100 µM (inactive).
